Reference: article PMC9541272, “Carba Analogues of Flupirtine and Retigabine with Improved Oxidation Resistance and Reduced Risk of Quinoid Metabolite Formation” (Chemmedchem, 2022)
Entries after “also recorded” stand apart in the source; their conditions may differ. Where two headings read alike, the source gives them in different places.

Assays:
[1] = LogD7.4 estimation by HPLC-based method; format: physicochemical; conditions: for logD7.4 (single determination): calculated from retention time with one calibration function (A–F)
Description: The logarithm of the capacity factors of the reference substances was then plotted against the corresponding logP values taken from the mentioned guideline to obtain a calibration function. For non‐ionizable compounds like the reference substances used for calibration, logP values can be considered equivalent to the logD 7.4 values. To obtain a reference mixture, 2 mg of the reference substances were each dissolved in 1 mL of methanol, and 50 μL aliquots of each reference solution were subsequently combined. The reference mixture was measured before and after the substances to be tested, and the mean retention time from both measurements was used to calculate the calibration function. The calibration function was then used to determine the logD 7.4 values from the corresponding retention times for each substance to be tested. The compounds of interest were injected as a solution in methanol (2 mg/mL), and the retention time was determined as the mean value from two measurements.

KV7.2/3 channel = KV7.2/3 channel (Homo sapiens, UniProt O43525+O43526); assay: KV7.2/3 channel opening activity, thallium-flux FLIPR Potassium Assay in HEK-293 cells overexpressing KV7.2/3; design: Emax: dose or concentration left out as unconfirmed; conditions: for KV7.2/3 opening activity (in words) / EC50 (required concentration to reach half‐maximal KV7.2/3 channel opening activity): HEK‐293 cells overexpressing KV7.2/3; for EC50 (required concentration to reach half‐maximal KV7.2/3 channel opening activity): mean ± SD, at least three determinations; for EC50 (required concentration to reach half‐maximal KV7.2/3 channel opening activity) / Efficacy: –[e] = inactive up to a concentration of 20 μM; for Efficacy: maximal fluorescence signal relative to flupirtine (100 %), HEK‐293; for Emax: HEK293E, read-out: Efficacy
Chain of KV7.2/3 channel (O43525 whole entry): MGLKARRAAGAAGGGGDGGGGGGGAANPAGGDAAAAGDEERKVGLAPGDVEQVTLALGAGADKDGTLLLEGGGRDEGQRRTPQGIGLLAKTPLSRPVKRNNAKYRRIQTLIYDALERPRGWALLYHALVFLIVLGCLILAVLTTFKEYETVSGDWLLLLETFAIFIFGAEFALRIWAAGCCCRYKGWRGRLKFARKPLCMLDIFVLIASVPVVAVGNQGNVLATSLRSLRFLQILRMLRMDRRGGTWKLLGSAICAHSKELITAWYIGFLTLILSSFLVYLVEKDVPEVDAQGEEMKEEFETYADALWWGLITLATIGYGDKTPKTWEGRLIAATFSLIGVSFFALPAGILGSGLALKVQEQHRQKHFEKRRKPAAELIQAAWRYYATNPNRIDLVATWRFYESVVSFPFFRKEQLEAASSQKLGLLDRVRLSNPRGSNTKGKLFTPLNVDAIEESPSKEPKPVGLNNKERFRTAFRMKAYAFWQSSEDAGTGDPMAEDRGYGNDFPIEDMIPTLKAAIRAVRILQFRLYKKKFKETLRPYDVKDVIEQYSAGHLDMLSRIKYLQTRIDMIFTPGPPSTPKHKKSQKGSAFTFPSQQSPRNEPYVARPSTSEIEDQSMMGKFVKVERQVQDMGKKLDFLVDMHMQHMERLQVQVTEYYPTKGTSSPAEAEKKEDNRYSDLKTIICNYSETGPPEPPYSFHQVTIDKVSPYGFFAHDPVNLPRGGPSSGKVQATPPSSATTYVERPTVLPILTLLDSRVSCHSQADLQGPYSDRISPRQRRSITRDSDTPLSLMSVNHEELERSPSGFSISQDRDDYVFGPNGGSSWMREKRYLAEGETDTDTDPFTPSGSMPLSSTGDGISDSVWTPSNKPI
Chain of KV7.2/3 channel (O43526 whole entry): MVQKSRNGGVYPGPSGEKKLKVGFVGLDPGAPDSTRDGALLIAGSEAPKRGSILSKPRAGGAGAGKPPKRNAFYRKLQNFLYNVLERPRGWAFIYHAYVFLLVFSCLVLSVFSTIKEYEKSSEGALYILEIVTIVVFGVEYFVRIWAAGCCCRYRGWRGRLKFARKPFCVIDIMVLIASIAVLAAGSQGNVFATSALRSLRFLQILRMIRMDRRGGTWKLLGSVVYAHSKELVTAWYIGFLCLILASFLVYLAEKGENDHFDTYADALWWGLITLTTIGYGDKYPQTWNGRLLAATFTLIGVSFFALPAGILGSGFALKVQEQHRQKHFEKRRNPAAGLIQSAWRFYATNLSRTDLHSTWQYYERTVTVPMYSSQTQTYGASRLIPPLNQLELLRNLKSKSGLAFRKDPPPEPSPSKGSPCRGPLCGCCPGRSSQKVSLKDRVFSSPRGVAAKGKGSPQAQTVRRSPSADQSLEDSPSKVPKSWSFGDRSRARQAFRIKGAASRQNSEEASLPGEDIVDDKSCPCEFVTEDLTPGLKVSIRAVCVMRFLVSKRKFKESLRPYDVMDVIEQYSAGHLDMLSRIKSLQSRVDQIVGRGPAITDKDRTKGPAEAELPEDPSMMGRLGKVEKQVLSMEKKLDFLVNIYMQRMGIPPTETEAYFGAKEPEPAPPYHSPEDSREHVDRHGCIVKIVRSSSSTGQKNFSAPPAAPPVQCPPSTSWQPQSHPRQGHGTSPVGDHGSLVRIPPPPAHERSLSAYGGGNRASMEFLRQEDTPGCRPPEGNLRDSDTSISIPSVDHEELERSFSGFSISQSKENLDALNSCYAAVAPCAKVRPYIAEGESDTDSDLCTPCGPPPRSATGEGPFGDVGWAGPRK

[2] = tested on: TAMH mouse liver cell line
[3] = Cyclic voltammetry, anodic peak potential (oxidizability); format: physicochemical; conditions: 0.1 M Tris‐HCl buffer pH 7.4, −0.5 to 1.0 V, sweep rate 0.1 V/s, –[b] = no oxidation observed in the specified potential range
[4] = tested on: HEP‐G2 human hepatoma cell line
[5] = pH 7.4, calculated from retention time with one calibration function (A–F), Table S7, read-out: logD7.4 (single determination)
[6] = pH 7.4, estimated by HPLC-based method, pH 7.4, read-out: LogD 7.4
[7] = KV7.2/3 opening, ratio of EC50 values
[8] = HEP‐G2, MTT assay, 24 h exposure

SMILES	logD7.4 (single determination) ([1]; Table S7)	chromatographic logD [1, 5]	chromatographic logD [1, 6]	KV7.2/3 opening activity (in words) (KV7.2/3 channel)	LD25 (concentration to reduce cell viability by 25 %) ([2]; mouse, 24 h) [µM]	LD50 (concentration to reduce cell viability by 50 %) ([2]; mouse, 24 h) [µM]	Ep.a. (anodic peak potential) [3]	LD25 (concentration to reduce cell viability by 25 %) ([4]; human, 24 h) [µM]	LD50 (concentration to reduce cell viability by 50 %) ([4]; human, 24 h) [µM]	EC50 (KV7.2/3 channel) [nM]	Emax (KV7.2/3 channel) [%]	other results
Cc1cc(CNc2ccc(F)cc2)ccc1NC(=O)c1ccccc1CO [compound 48, N ‐(4‐{[(4‐Fluorophenyl)amino]methyl}‐2‐methylphenyl)‐2‐(hydroxymethyl)benzamide]	2.899	2.93	2.9	inactive	70 ± 10	>125	no anodic peak potential could be determined; also recorded: –^[b]	80 ± 7	84 ± 6	–	–	EC50 (required concentration to reach half‐maximal KV7.2/3 channel opening activity) (KV7.2/3 channel): –^[e]; Efficacy (KV7.2/3 channel): –^[e]
CCCC(=O)Nc1ncc(CNc2ccc(F)cc2)cc1C [43 a, N ‐(5‐{[(4‐Fluorophenyl)amino]methyl}‐3‐methylpyridin‐2‐yl)butyramide]	2.341	2.33	2.3	–	110 ± 54	>125	678 mV	46 ± 24	>125	4840 ± 2910	89 ± 32	–
CCCC(=O)Nc1ccc(CNc2ccc(F)cc2)cc1F [35 c, N ‐(2‐Fluoro‐4‐{[(4‐fluorophenyl)amino]methyl}phenyl)butyramide]	2.980	2.96	3	–	>63	>63	643 mV	>63	>63	1510 ± 364	167 ± 16	–
CCCC(=O)Nc1ncc(CNc2ccc(F)cc2)cc1Br [42 a, N ‐(3‐Bromo‐5‐{[(4‐fluorophenyl)amino]methyl}pyridin‐2‐yl)butyramide]	2.714	2.71	2.7	–	>63	>63	668 mV	>63	>63	5450 ± 1700	163 ± 23	–
CCCC(=O)Nc1c(C)cc(CNc2ccc(F)cc2)cc1C [35 a, N ‐(4‐{[(4‐Fluorophenyl)amino]methyl}‐2,6‐dimethylphenyl)butyramide]	3.023	3.04	3	submicromolar activity	–	>125	633 mV	–	>125	143 ± 20	143 ± 7	fold increase in potency compared to 35 b (KV7.2/3 channel; [7]): 4.7 fold
CCOC(=O)Nc1ccc(CCc2ccc(F)cc2)nc1N [compound 7, Ethyl [2‐amino‐6‐(4‐fluorophenethyl)pyridin‐3‐yl]carbamate]	2.983	2.95	3	clearly less active than flupirtine	25 ± 7	>63	628 mV	27 ± 16	>63	> 10000	–	–
CCCC(=O)Nc1ncc(CNc2ccc(F)cc2)cc1C1CC1 [43 c, N ‐(3‐Cyclopropyl‐5‐{[(4‐fluorophenyl)amino]methyl}pyridin‐2‐yl)butyramide]	2.772	2.77	2.8	–	76 ± 52	>125	678 mV	55 ± 17	>125	2020 ± 1200	138 ± 20	fold increase in potency compared to 43 a (KV7.2/3 channel; [7]): 2.4 fold; increase in efficiency compared to 43 a (KV7.2/3 channel; difference of efficacy values): 49%
Cc1cc(CNc2ccc(F)cc2)cnc1NC(=O)CC(C)(C)C [43 b, N ‐(5‐{[(4‐Fluorophenyl)amino]methyl}‐3‐methylpyridin‐2‐yl)‐3,3‐dimethylbutanamide]	3.039	3.03	3	submicromolar activity	>125	>125	663 mV	66 ± 27	>125	677 ± 419	153 ± 12	fold increase in potency compared to 43 a (KV7.2/3 channel; [7]): 7.2 fold
CCOC(=O)Nc1ccc(NCc2ccc(F)cc2)cc1N [Ret, retigabine]	–	–	–	–	–	–	260 mV	–	–	249 ± 52	119 ± 7	fold increase in potency compared to flupirtine (KV7.2/3 channel; [7]): 7 fold; LD25 (concentration to reduce cell viability by 25 %) ([2]; TAMH, MTT assay, 24 h exposure): >400 µM; LD50 (concentration to reduce cell viability by 50 %) ([2]; TAMH, MTT assay, 24 h exposure): >400 µM; LD50 (concentration to reduce cell viability by 50 %) ([2]; TAMH, MTT assay, 24 h exposure, listed as retigabine): above 400 μM; LD25 (concentration to reduce cell viability by 25 %) [4, 8]: 269 ± 166 µM; LD50 (concentration to reduce cell viability by 50 %) [4, 8]: >400 µM; LD50 (concentration to reduce cell viability by 50 %) ([4]; HEP‐G2, MTT assay, 24 h exposure, listed as retigabine): above 400 μM
CCCC(=O)Nc1ccc(CNc2ccc(F)cc2)cc1C [35 b, N ‐(4‐{[(4‐Fluorophenyl)amino]methyl}‐2‐methylphenyl)butyramide]	2.870	2.88	2.9	–	>125	>125	618 mV	88 ± 9	>125	675 ± 276	176 ± 14	–
Cc1nc(CNc2ccc(F)cc2)ccc1NC(=O)OCC(C)C [compound 27, Isobutyl (6‐{[(4‐fluorophenyl)amino]methyl}‐2‐methylpyridin‐3‐yl)carbamate]	3.408	3.42	3.4	–	76 ± 15	>250	648 mV	136 ± 38	>250	4120 ± 3940	94 ± 15	–
CCOC(=O)Nc1ccc(C#Cc2ccccc2)nc1N [compound 21, Ethyl [2‐amino‐6‐(phenylethynyl)pyridin‐3‐yl]carbamate]	2.983	2.99	3	–	63 ± 12	>125	553 mV	>125	>125	> 20000	–	EC50 (required concentration to reach half‐maximal KV7.2/3 channel opening activity) (KV7.2/3 channel): –^[e]; Efficacy (KV7.2/3 channel): –^[e]
CCCC(=O)Nc1ccc(CNc2ccc(F)cc2)cc1C(F)(F)F.Cl [35 d, N ‐(4‐{[(4‐Fluorophenyl)amino]methyl}‐2‐(trifluoromethyl)phenyl)butyramide hydrochloride]	2.991	3	3	–	>125	>125	663 mV	75 ± 17	>125	362 ± 93	156 ± 14	–
Cc1cc(CNc2ccc(F)cc2F)ccc1NC(=O)c1cccnc1 [35 e, N ‐(4‐{[(2,4‐Difluorophenyl)amino]methyl}‐2‐methylphenyl)nicotinamide]	2.952	2.97	3	inactive	41 ± 11	>125	no anodic peak potential could be determined; also recorded: –^[b]	61 ± 7	107 ± 16	–	–	EC50 (required concentration to reach half‐maximal KV7.2/3 channel opening activity) (KV7.2/3 channel): –^[e]; Efficacy (KV7.2/3 channel): –^[e]
